Measured values from the supplement of paper PMC10307832.

Experiments:
Assay in all cases: relative viability (nuclei count vs DMSO), 5 days (fraction); higher = more cells survive
COR-L23 = tested on: COR-L23
Method in brief: (§1)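 Nuclei were stained with Hoechst during a one-step fixation (final 0.05% Triton X-100, 1% formaldehyde, 1 ug/ml Hoechst) carried out 5 days after dosing, then counted on 4× images. The cells, lung cancer lines in 1536-well plates, had been dosed by pin tool the day after seeding with one drug alone or a fixed anchor-drug dose plus five library-drug doses (not always all listed) in √10 steps. Relative viability is the nuclei count in treated wells divided by that in vehicle wells, and each value is the median of duplicate plates.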

NCI-H2126 = tested on: NCI-H2126
Method in brief: as §1

SW 1573 = tested on: SW 1573
Method in brief: as §1

RERF-LC-KJ = tested on: RERF-LC-KJ
Method in brief: as §1

NCI-H1355 = tested on: NCI-H1355
Method in brief: as §1

NCI-H838 = tested on: NCI-H838
Method in brief: as §1

NCI-H23 = tested on: NCI-H23
Method in brief: as §1

SW 900 = tested on: SW 900
Method in brief: as §1

H3255 = tested on: H3255
Method in brief: as §1

UMC-11 = tested on: UMC-11
Method in brief: as §1

NCI-H1915 = tested on: NCI-H1915
Method in brief: as §1

NCI-H1755 = tested on: NCI-H1755
Method in brief: as §1

HCC-827 = tested on: HCC-827
Method in brief: as §1

NCI-H3122 = tested on: NCI-H3122
Method in brief: as §1

EMC-BAC-2 = tested on: EMC-BAC-2
Method in brief: as §1

NCI-H520 = tested on: NCI-H520
Method in brief: as §1

EKVX = tested on: EKVX
Method in brief: as §1

NCI-H2405 = tested on: NCI-H2405
Method in brief: as §1

NCI-H661 = tested on: NCI-H661
Method in brief: as §1

HCC-15 = tested on: HCC-15
Method in brief: as §1

LC-2-ad = tested on: LC-2-ad
Method in brief: as §1

HARA = tested on: HARA
Method in brief: as §1

LCLC-97TM1 = tested on: LCLC-97TM1
Method in brief: as §1

`Nc1cccc2c1CN(C1CCC(=O)NC1=O)C2=O` (stereo not drawn) [Lenalidomide] + COc1cc2c(Oc3ccc(NC(=O)C4(C(=O)Nc5ccc(F)cc5)CC4)cc3F)ccnc2cc1OCCCN1CCOCC1 [Foretinib] (partner 0.25 µM) showed a relative viability (COR-L23; first compound 0.253 µM) of 0.897, a relative viability (COR-L23; first compound 0.8 µM) of 0.998 and a relative viability (COR-L23; first compound 2.53 µM) of 1.08. For the same compound, the relative viability (COR-L23; first compound 8 µM) was 1.15, the relative viability (NCI-H2126; first compound 0.253 µM) was 1.33 and the relative viability (NCI-H2126; first compound 0.8 µM) was 1.13. For the same compound, the relative viability (NCI-H2126; first compound 2.53 µM) was 1.39, the relative viability (NCI-H2126; first compound 8 µM) was 1.14 and the relative viability (SW 1573; first compound 0.253 µM) was 0.971. For the same compound, the relative viability (SW 1573; first compound 0.8 µM) was 1.15, the relative viability (SW 1573; first compound 2.53 µM) was 0.95 and the relative viability (SW 1573; first compound 8 µM) was 0.877. The relative viability (RERF-LC-KJ; first compound 0.253 µM) was 0.891, the relative viability (RERF-LC-KJ; first compound 0.8 µM) was 0.886 and the relative viability (RERF-LC-KJ; first compound 2.53 µM) was 0.962. For the same compound, the relative viability (RERF-LC-KJ; first compound 8 µM) was 0.793, the relative viability (NCI-H1355; first compound 0.253 µM) was 0.973 and the relative viability (NCI-H1355; first compound 2.53 µM) was 0.901. For the same compound, the relative viability (NCI-H1355; first compound 8 µM) was 0.808, the relative viability (NCI-H838; first compound 0.253 µM) was 1.11 and the relative viability (NCI-H838; first compound 0.8 µM) was 0.965. The relative viability (NCI-H838; first compound 2.53 µM) was 1.15, the relative viability (NCI-H838; first compound 8 µM) was 1.2 and the relative viability (NCI-H23; first compound 0.253 µM) was 0.926. The relative viability (NCI-H23; first compound 0.8 µM) was 1.13, the relative viability (NCI-H23; first compound 2.53 µM) was 0.847 and the relative viability (NCI-H23; first compound 8 µM) was 1.03. For the same compound, the relative viability (SW 900; first compound 0.253 µM) was 0.785, the relative viability (SW 900; first compound 2.53 µM) was 0.879 and the relative viability (SW 900; first compound 8 µM) was 0.884. The relative viability (H3255; first compound 0.253 µM) was 0.733, the relative viability (H3255; first compound 0.8 µM) was 0.825 and the relative viability (H3255; first compound 2.53 µM) was 0.95. For the same compound, the relative viability (H3255; first compound 8 µM) was 0.727, the relative viability (UMC-11; first compound 0.253 µM) was 1.02 and the relative viability (UMC-11; first compound 0.8 µM) was 1.07. It also gave a relative viability (UMC-11; first compound 2.53 µM) of 1.06, a relative viability (UMC-11; first compound 8 µM) of 0.953 and a relative viability (NCI-H1915; first compound 0.253 µM) of 1.07. The relative viability (NCI-H1915; first compound 0.8 µM) was 1.03, the relative viability (NCI-H1915; first compound 2.53 µM) was 1.14 and the relative viability (NCI-H1915; first compound 8 µM) was 1.14. The relative viability (NCI-H1755; first compound 0.253 µM) was 0.915, the relative viability (NCI-H1755; first compound 0.8 µM) was 0.904 and the relative viability (NCI-H1755; first compound 2.53 µM) was 0.886. It also gave a relative viability (NCI-H1755; first compound 8 µM) of 0.782, a relative viability (HCC-827; first compound 0.253 µM) of 1.03 and a relative viability (HCC-827; first compound 0.8 µM) of 1.05. The relative viability (HCC-827; first compound 2.53 µM) was 1.01, the relative viability (HCC-827; first compound 8 µM) was 1.04 and the relative viability (NCI-H3122; first compound 0.253 µM) was 0.98. The relative viability (NCI-H3122; first compound 0.8 µM) was 1.04, the relative viability (NCI-H3122; first compound 2.53 µM) was 0.915 and the relative viability (NCI-H3122; first compound 8 µM) was 1.02. It also gave a relative viability (EMC-BAC-2; first compound 0.253 µM) of 1, a relative viability (EMC-BAC-2; first compound 0.8 µM) of 0.967 and a relative viability (EMC-BAC-2; first compound 2.53 µM) of 1.04. The relative viability (EMC-BAC-2; first compound 8 µM) was 0.885, the relative viability (NCI-H520; first compound 0.253 µM) was 0.805 and the relative viability (NCI-H520; first compound 0.8 µM) was 0.627. It also gave a relative viability (NCI-H520; first compound 2.53 µM) of 0.875, a relative viability (NCI-H520; first compound 8 µM) of 0.711 and a relative viability (EKVX; first compound 0.253 µM) of 0.806. For the same compound, the relative viability (EKVX; first compound 0.8 µM) was 0.772, the relative viability (EKVX; first compound 2.53 µM) was 0.46 and the relative viability (EKVX; first compound 8 µM) was 0.932. It also gave a relative viability (NCI-H2405; first compound 0.253 µM) of 1.02, a relative viability (NCI-H2405; first compound 0.8 µM) of 0.951 and a relative viability (NCI-H2405; first compound 2.53 µM) of 1.11. The relative viability (NCI-H2405; first compound 8 µM) was 1.01, the relative viability (NCI-H661; first compound 0.253 µM) was 0.996 and the relative viability (NCI-H661; first compound 0.8 µM) was 0.983. For the same compound, the relative viability (NCI-H661; first compound 2.53 µM) was 1.01, the relative viability (NCI-H661; first compound 8 µM) was 0.994 and the relative viability (HCC-15; first compound 0.253 µM) was 1.03. It also gave a relative viability (HCC-15; first compound 0.8 µM) of 1.04, a relative viability (HCC-15; first compound 2.53 µM) of 1.17 and a relative viability (HCC-15; first compound 8 µM) of 1.05. For the same compound, the relative viability (LC-2-ad; first compound 0.253 µM) was 0.92, the relative viability (LC-2-ad; first compound 2.53 µM) was 1.05 and the relative viability (LC-2-ad; first compound 8 µM) was 0.96. The relative viability (HARA; first compound 0.253 µM) was 0.846, the relative viability (HARA; first compound 2.53 µM) was 0.856 and the relative viability (HARA; first compound 8 µM) was 0.955. The relative viability (LCLC-97TM1; first compound 0.253 µM) was 0.906, the relative viability (LCLC-97TM1; first compound 0.8 µM) was 0.991 and the relative viability (LCLC-97TM1; first compound 2.53 µM) was 1. It also gave a relative viability (LCLC-97TM1; first compound 8 µM) of 0.947.
